± gives the standard deviation of the averaged measurements.
Experiments:
Details in all cases: 72 h
Caco-2 [1] = test: relative viability EC50 (midpoint between 100% and the lowest measured viability); higher = less toxic
HepG2 [2] = test: as above
U2OS [3] = test: as above
Calu-3 [4] = test: as above
Vero E6 [5] = test: as above
Caco-2 [6] = test: drug sensitivity score (DSS) for viability; higher = more toxic; extreme values may be limits of the assay
HepG2 [7] = test: as above
U2OS [8] = test: as above
Calu-3 [9] = test: as above
Vero E6 [10] = test: as above
Caco-2 [11] = test: cell viability relative to DMSO; higher = less toxic
HepG2 [12] = test: as above
U2OS [13] = test: as above
Calu-3 [14] = test: as above
Vero E6 [15] = test: as above

Structure (SMILES): COc1ccc(-c2cnc3c(-c4cccc5ncccc45)cnn3c2)cc1 [ML347]
- relative viability EC50 (Caco-2 [1]): > 10 µM
- relative viability EC50 (HepG2 [2]): > 10 µM
- relative viability EC50 (U2OS [3]): > 10 µM
- relative viability EC50 (Calu-3 [4]): > 10 µM
- relative viability EC50 (Vero E6 [5]): > 10 µM
- drug sensitivity score (Caco-2 [6]): 0
- drug sensitivity score (HepG2 [7]): 0
- drug sensitivity score (U2OS [8]): 0
- drug sensitivity score (Calu-3 [9]): 0.1 ± 0.14
- drug sensitivity score (Vero E6 [10]): 0
- cell viability (Caco-2 [11]; 1 nM): 107 ± 14%
- cell viability (Caco-2 [11]; 10 nM): 100 ± 5.3%
- cell viability (Caco-2 [11]; 100 nM): 96.5 ± 2%
- cell viability (Caco-2 [11]; 1000 nM): 96.05 ± 0.35%
- cell viability (Caco-2 [11]; 10000 nM): 98.9 ± 8.6%
- cell viability (HepG2 [12]; 1 nM): 105 ± 4%
- cell viability (HepG2 [12]; 10 nM): 96 ± 9.3%
- cell viability (HepG2 [12]; 100 nM): 99.3 ± 3.2%
- cell viability (HepG2 [12]; 1000 nM): 98.1 ± 0.57%
- cell viability (HepG2 [12]; 10000 nM): 97.2 ± 6.9%
- cell viability (U2OS [13]; 1 nM): 101 ± 2%
- cell viability (U2OS [13]; 10 nM): 100 ± 3.1%
- cell viability (U2OS [13]; 100 nM): 105 ± 6.3%
- cell viability (U2OS [13]; 1000 nM): 102 ± 1.8%
- cell viability (U2OS [13]; 10000 nM): 96.8 ± 4.3%
- cell viability (Calu-3 [14]; 1 nM): 106 ± 9.3%
- cell viability (Calu-3 [14]; 10 nM): 101 ± 7.9%
- cell viability (Calu-3 [14]; 100 nM): 99.5 ± 2.8%
- cell viability (Calu-3 [14]; 1000 nM): 101 ± 4.9%
- cell viability (Calu-3 [14]; 10000 nM): 93.4 ± 8.5%
- cell viability (Vero E6 [15]; 1 nM): 102%
- cell viability (Vero E6 [15]; 10 nM): 100%
- cell viability (Vero E6 [15]; 100 nM): 99%
- cell viability (Vero E6 [15]; 1000 nM): 99.3%
- cell viability (Vero E6 [15]; 10000 nM): 105%

Structure (SMILES): NC(=O)C[S+]([O-])C(c1ccccc1)c1ccccc1 (stereo not given) [MODAFINIL]
- relative viability EC50 (Caco-2 [1]): > 10 µM
- relative viability EC50 (HepG2 [2]): > 10 µM
- relative viability EC50 (U2OS [3]): > 10 µM
- relative viability EC50 (Calu-3 [4]): > 10 µM
- relative viability EC50 (Vero E6 [5]): > 10 µM
- drug sensitivity score (Caco-2 [6]): 0
- drug sensitivity score (HepG2 [7]): 0.55 ± 0.78
- drug sensitivity score (U2OS [8]): 0
- drug sensitivity score (Calu-3 [9]): 0
- drug sensitivity score (Vero E6 [10]): 0
- cell viability (Caco-2 [11]; 1 nM): 103 ± 3.7%
- cell viability (Caco-2 [11]; 10 nM): 99.5 ± 2.2%
- cell viability (Caco-2 [11]; 100 nM): 109 ± 10%
- cell viability (Caco-2 [11]; 1000 nM): 100.4 ± 0.42%
- cell viability (Caco-2 [11]; 10000 nM): 97 ± 2.3%
- cell viability (HepG2 [12]; 1 nM): 102 ± 17%
- cell viability (HepG2 [12]; 10 nM): 103 ± 1.9%
- cell viability (HepG2 [12]; 100 nM): 99.2 ± 12%
- cell viability (HepG2 [12]; 1000 nM): 96.1 ± 15%
- cell viability (HepG2 [12]; 10000 nM): 95.3 ± 4.4%
- cell viability (U2OS [13]; 1 nM): 99.2 ± 1.5%
- cell viability (U2OS [13]; 10 nM): 97.8 ± 2.8%
- cell viability (U2OS [13]; 100 nM): 99.7 ± 2.9%
- cell viability (U2OS [13]; 1000 nM): 98.2 ± 3%
- cell viability (U2OS [13]; 10000 nM): 100 ± 4.6%
- cell viability (Calu-3 [14]; 1 nM): 93 ± 6.5%
- cell viability (Calu-3 [14]; 10 nM): 99.4 ± 0.57%
- cell viability (Calu-3 [14]; 100 nM): 99.3 ± 6.7%
- cell viability (Calu-3 [14]; 1000 nM): 102.2 ± 0.35%
- cell viability (Calu-3 [14]; 10000 nM): 95.8 ± 7.3%
- cell viability (Vero E6 [15]; 1 nM): 97.3 ± 6%
- cell viability (Vero E6 [15]; 10 nM): 103 ± 14%
- cell viability (Vero E6 [15]; 100 nM): 96.2 ± 15%
- cell viability (Vero E6 [15]; 1000 nM): 88.6 ± 4%
- cell viability (Vero E6 [15]; 10000 nM): 104 ± 5.5%

Structure (SMILES): Cc1nc2c(O)cccc2c(=O)[nH]1 [NU-1025]
- relative viability EC50 (Caco-2 [1]): > 10 µM
- relative viability EC50 (HepG2 [2]): > 10 µM
- relative viability EC50 (U2OS [3]): > 10 µM
- relative viability EC50 (Calu-3 [4]): > 10 µM
- relative viability EC50 (Vero E6 [5]): > 10 µM
- drug sensitivity score (Caco-2 [6]): 0
- drug sensitivity score (HepG2 [7]): 0
- drug sensitivity score (U2OS [8]): 0
- drug sensitivity score (Calu-3 [9]): 0
- drug sensitivity score (Vero E6 [10]): 0
- cell viability (Caco-2 [11]; 1 nM): 101%
- cell viability (Caco-2 [11]; 10 nM): 92.4%
- cell viability (Caco-2 [11]; 100 nM): 96.6%
- cell viability (Caco-2 [11]; 1000 nM): 96.7%
- cell viability (Caco-2 [11]; 10000 nM): 101%
- cell viability (HepG2 [12]; 1 nM): 104%
- cell viability (HepG2 [12]; 10 nM): 109%
- cell viability (HepG2 [12]; 100 nM): 98.4%
- cell viability (HepG2 [12]; 1000 nM): 109%
- cell viability (HepG2 [12]; 10000 nM): 101%
- cell viability (U2OS [13]; 1 nM): 104%
- cell viability (U2OS [13]; 10 nM): 100%
- cell viability (U2OS [13]; 100 nM): 100%
- cell viability (U2OS [13]; 1000 nM): 99.9%
- cell viability (U2OS [13]; 10000 nM): 101%
- cell viability (Calu-3 [14]; 1 nM): 96.6%
- cell viability (Calu-3 [14]; 10 nM): 99.6%
- cell viability (Calu-3 [14]; 100 nM): 102%
- cell viability (Calu-3 [14]; 1000 nM): 106%
- cell viability (Calu-3 [14]; 10000 nM): 99.8%
- cell viability (Vero E6 [15]; 1 nM): 99.7%
- cell viability (Vero E6 [15]; 10 nM): 102%
- cell viability (Vero E6 [15]; 100 nM): 98.7%
- cell viability (Vero E6 [15]; 1000 nM): 100%
- cell viability (Vero E6 [15]; 10000 nM): 98.1%

Structure (SMILES): CCCCCCCC/C=C\CCCCCCCC(=O)N[C@@H](CO)Cc1ccc(O)cc1 [OMDM-2]
- relative viability EC50 (Caco-2 [1]): > 10 µM
- relative viability EC50 (HepG2 [2]): > 10 µM
- relative viability EC50 (U2OS [3]): > 10 µM
- relative viability EC50 (Calu-3 [4]): > 10 µM
- relative viability EC50 (Vero E6 [5]): > 10 µM
- drug sensitivity score (Caco-2 [6]): 0
- drug sensitivity score (HepG2 [7]): 0
- drug sensitivity score (U2OS [8]): 0
- drug sensitivity score (Calu-3 [9]): 0
- drug sensitivity score (Vero E6 [10]): 0
- cell viability (Caco-2 [11]; 1 nM): 87.1%
- cell viability (Caco-2 [11]; 10 nM): 94.4%
- cell viability (Caco-2 [11]; 100 nM): 97.1%
- cell viability (Caco-2 [11]; 1000 nM): 91.8%
- cell viability (Caco-2 [11]; 10000 nM): 102%
- cell viability (HepG2 [12]; 1 nM): 100%
- cell viability (HepG2 [12]; 10 nM): 93.3%
- cell viability (HepG2 [12]; 100 nM): 114%
- cell viability (HepG2 [12]; 1000 nM): 106%
- cell viability (HepG2 [12]; 10000 nM): 99.6%
- cell viability (U2OS [13]; 1 nM): 96.8%
- cell viability (U2OS [13]; 10 nM): 101%
- cell viability (U2OS [13]; 100 nM): 96.7%
- cell viability (U2OS [13]; 1000 nM): 100%
- cell viability (U2OS [13]; 10000 nM): 99.7%
- cell viability (Calu-3 [14]; 1 nM): 106%
- cell viability (Calu-3 [14]; 10 nM): 102%
- cell viability (Calu-3 [14]; 100 nM): 99.5%
- cell viability (Calu-3 [14]; 1000 nM): 96.7%
- cell viability (Calu-3 [14]; 10000 nM): 97.3%
- cell viability (Vero E6 [15]; 1 nM): 92.4%
- cell viability (Vero E6 [15]; 10 nM): 92%
- cell viability (Vero E6 [15]; 100 nM): 97.4%
- cell viability (Vero E6 [15]; 1000 nM): 93.7%
- cell viability (Vero E6 [15]; 10000 nM): 109%
